Reference: patent US20190054060A1 (priority 2016, published 2019)

Key:
[1] = test system: influenza A(H3N2) infection with pneumonia; details: human, in vivo
[2] = test system: NIRV mutants E119V, R292K and N294S; details: cited from earlier work

## CCOC(=O)C1=C[C@@H](OC(CC)CC)[C@H](NC(C)=O)[C@@H](N)C1 [Oseltamivir, ethyl (3R,4R,5S)-5-amino-4-acetamido-3-(pentan-3-yloxy)-cyclohex-1-ene-1-carboxylate]
[1]
  Admission to ICU - (%): (2.7) %
  Admission to ICU - no.: 3 no.
  Complications: Nosocomial infection - (%): (5.5) %
  Complications: Nosocomial infection - no.: 6 no.
  Complications: Ventilator associated pneumonia - (%): (0.9) %
  Complications: Ventilator associated pneumonia - no.: 1 no.
  Length of hospitalization (median; IQR): 3
  Mortality 90-day - (%): (10) %
  Mortality 90-day - no.: 11 no.
  Readmission ≤30 days from discharge - (%): (17.3) %
  Readmission ≤30 days from discharge - no.: 19 no.
[2]
  increase of the 50% inhibitory concentration (IC50) by NIRV mutants: > 100 fold
